Measurements published in PMC4178217, “Quinoline 3-sulfonamides inhibit lactate dehydrogenase A and reverse aerobic glycolysis in cancer cells” (Cancer & Metabolism, 2013).
Values joined by “and” are separate entries in the source; they are usually repeats but may differ in a detail not shown here. Equal entries are not always repeated.

System: Snu398 cells
Conditions: Snu-398 conditioned medium, 10 μM, 24 h
Experimental: Ten million Snu398 or HepG2 cells per flask were plated in R10 medium in T150 tissue culture flasks and allowed to attach overnight. The following morning, medium was replaced with medium containing either DMSO or 10 μM LDHA inhibitor, and cells were incubated for 24 h at 37°C. The conditioned medium was collected and cells were washed, lifted by trypsinization and pelleted. Both medium and cell samples were submitted for mass spectroscopy (MS) analysis of over 500 individual metabolites. All samples were prepared in replicates of five.

COc1ncc(-c2ccc3c(Nc4cc(C(=O)O)cc(C5CCCC5)c4)c(S(=O)(=O)NC4CC4)cnc3c2)c(OC)n1 [Compound 2]
0.69: fold change X - 10869
0.94: fold change X - 11787 | fold change X - 12749 | fold change X - 13166 | fold change alanylglutamine | fold change heme* | fold change lactate | fold change methionine
0.77: fold change 4-guanidinobutanoate
1.04: fold change X - 11315 | fold change caprylate (8:0)
1.21: fold change 4-methyl-2-oxopentanoate | fold change X - 13104 | fold change X - 15559
1.25: fold change X - 04015
1.26: fold change 2-palmitoylglycerophosphocholine*
1.12: fold change X - 15808 | fold change thiamin (Vitamin B1)
0.85: fold change gamma-glutamylvaline | fold change hydroquinone | fold change lysylleucine
1.02: fold change 3-dehydrocarnitine* | fold change X - 02973 | fold change citrate | fold change glycocholate | fold change indolelactate | fold change isovalerylcarnitine | fold change pipecolate | fold change pseudouridine | fold change pyridoxine (Vitamin B6) | fold change riboflavin (Vitamin B2)
0.42: fold change X - 10634
1.24: fold change X - 13494
1.11: fold change 6'-sialyllactose | fold change N-acetylornithine | fold change X - 12776 | fold change X - 13507
0.74: fold change asparagine | fold change gamma-glutamylisoleucine*
0.90: fold change 1-palmitoleoylglycerophosphocholine* | fold change 4-acetamidobutanoate | fold change glycochenodeoxycholate | fold change glycylglycine | fold change tryptophan
0.87: fold change X - 10740 | fold change X - 11533 | fold change X - 13483 | fold change nicotinamide
3.15: fold change X - 04357
1.07: fold change creatinine | fold change glucose | fold change hexadecanedioate | fold change kynurenine
1.14: fold change X - 04148
2.02: fold change X - 12786
0.98: fold change 2-oleoylglycerophosphocholine* | fold change C-glycosyltryptophan* | fold change X - 08895 | fold change X - 13100 | fold change X - 13103 | fold change arginine | fold change hippurate | fold change myo-inositol | fold change p-aminobenzoate (PABA) | fold change pantothenate | fold change sorbitol | fold change succinate
0.93: fold change beta-hydroxyisovalerate | fold change carnitine | fold change cyclo(leu-ala)
1.73: fold change X - 14056
0.37: fold change X - 04252
1.06: fold change 3-indoxyl sulfate | fold change glycine | fold change pro-hydroxy-pro | fold change ribitol | fold change trans-4-hydroxyproline
1.35: fold change X - 13491
1.38: fold change X - 08889
0.51: fold change lysine
1.41: fold change cysteine-glutathione disulfide
0.79: fold change N-acetylneuraminate
1.34: fold change X - 09008
1.13: fold change 2-methylbutyrylglycine | fold change proline | fold change xylitol
0.86: fold change X - 13857 | fold change beta-alanine | fold change glycerophosphorylcholine (GPC)
1.19: fold change 1-stearoylglycerophosphocholine | fold change 5-oxoproline | fold change X - 11081 | fold change X - 15678 | fold change X - 16439
1.03: fold change 3-methyl-2-oxovalerate | fold change X - 16206 | fold change X - 16444 | fold change dimethyl sulfoxide* | fold change docosahexaenoate (DHA; 22:6n3) | fold change isobutyrylcarnitine | fold change serotonin (5HT)
0.81: fold change X - 06911
0.82: fold change X - 16116 | fold change mannitol | fold change putrescine
1.08: fold change allantoin
1.18: fold change 2-hydroxyglutarate | fold change X - 08172 | fold change X - 15563 | fold change gamma-glutamylphenylalanine
2.54: fold change X - 13581
0.91: fold change N6-carbamoylthreonyladenosine | fold change X - 06126 | fold change tyrosine
0.28: fold change X - 02952
1.42: fold change 2-stearoylglycerophosphocholine*
1.15: fold change Isobar: 2-propylpentanoic acid, 2-ethylhexanoic acid | fold change glutamine | fold change glycerate
1.20: fold change X - 16200 | fold change alanine | fold change uridine
0.99: fold change 2-aminobutyrate | fold change 2-hydroxybutyrate (AHB) | fold change N-acetylaspartate (NAA) | fold change X - 12602 | fold change fumarate | fold change glycyltyrosine | fold change phenol red | fold change uracil
0.89: fold change X - 11593 | fold change X - 12013 | fold change docosapentaenoate (n3 DPA; 22:5n3) | fold change gamma-glutamylleucine | fold change phenylalanine | fold change scyllo-inositol | fold change taurocholate
0.96: fold change X - 12216 | fold change X - 12435 | fold change X - 13117 | fold change X - 17112 | fold change aspartylleucine | fold change erythronate* | fold change glycylvaline | fold change isoleucine | fold change p-cresol sulfate | fold change palmitoyl sphingomyelin | fold change taurodeoxycholate | fold change threitol | fold change threonine
1.05: fold change 1-oleoylglycerophosphocholine | fold change 3-methyl-2-oxobutyrate | fold change X - 09026 | fold change beta-hydroxypyruvate | fold change glutamate
3 and 2.66: fold change pyruvate
1.30: fold change dimethylarginine (SDMA + ADMA)
0.68: fold change isovalerate
1.01: fold change 1-palmitoylglycerophosphocholine | fold change 2-methylbutyroylcarnitine | fold change N1-methyladenosine | fold change X - 05907 | fold change X - 12015 | fold change X - 13110 | fold change arachidonate (20:4n6) | fold change caproate (6:0) | fold change catechol sulfate | fold change creatine | fold change cysteine | fold change erythritol | fold change fructose | fold change histidine | fold change homostachydrine* | fold change phosphate
1.33: fold change X - 04135
0.97: fold change 3-(4-hydroxyphenyl)lactate | fold change HEPES | fold change X - 12799 | fold change acetylcarnitine | fold change biotin | fold change choline | fold change valerylcarnitine
1.10: fold change X - 12117 | fold change X - 12792 | fold change X - 15558 | fold change X - 15562 | fold change X - 17430 | fold change glycerol | fold change kynurenate | fold change urea
1.09: fold change X - 13553 | fold change arabitol | fold change aspartate | fold change ethanolamine
0.84: fold change X - 14588 | fold change glycylleucine | fold change serine
0.95: fold change N1-methylguanosine | fold change X - 16103 | fold change citrulline | fold change cysteine sulfinic acid | fold change deoxycarnitine | fold change glycerol 3-phosphate (G3P) | fold change leucine | fold change malate | fold change phenylacetylglycine | fold change propionylcarnitine | fold change pyridoxate | fold change valine
0.80: fold change 2'-O-methylguanosine | fold change X - 13115 | fold change ornithine | fold change tetradecanedioate
1.17: fold change X - 04133
1.76: fold change X - 03090
1.45: fold change X - 10475 | fold change X - 14574
0.76: fold change butyrylcarnitine
1.00: fold change X - 12339 | fold change X - 12729 | fold change X - 12944 | fold change X - 13496 | fold change acetylphosphate | fold change betaine | fold change folate | fold change phenol sulfate
1.32: fold change X - 10476
